Laboratory results: PubChem BioAssay AID2060328 (Molecular Pharmacology Branch, DTP, NCI, 2025)

System: MDA-MB-231 multicell spheroids, viability (%T/C)
Test: Anticancer human tumor MDA-MB-231 cell line growth inhibition [IpAb];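 note: viability read after seven days of drug exposure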
Details: for IC50: curve of first compound; for viability, T/C: stronger effect = lower value; active = viability on the fitted dose curve at most 10% of control; inactive = the rest
Description: Combinatorial screen of targeted agents with ipatasertib and abemaciclib in multi-cell type tumor spheroids
A high-throughput screen of multi-cell type tumor spheroids was designed to identify active combinations of targeted small molecules and ipatasertib or abemaciclib. Complex spheroids include a stromal component modeled by human endothelial cells (HUVEC) and fibroblasts modeled by human mesenchymal stem cells (MSCs). The concentration ranges selected for each drug and investigational agent were based upon clinically achievable concentrations if the clinical Cmax of the agent was known.
Compounds. The drugs and investigational agents: ipatasertib (NSC767898), abemaciclib(NSC768073), selumetinib (NSC741078), trametinib (758246), adavosertib (NSC754352), everolimus (NSC733504), sapanisertib (NSC764658), vemurafenib (NSC761431), venetoclax (NSC766270), copanlisib (NSC809693), apelisib (NSC765974), palbociblib (NSC758247), vemurafenib (NSC761431), dabrafenib (NSC764134), ravoxertinib (NSC781343), BMS-387032 (NSC767048), sotorasib (NSC818433), talazoparib (NSC767125) and afursertib (NSC778305), were obtained from the National Cancer Institute (NCI) Developmental Therapeutics Program Chemical Repository. The FDA-approved anticancer drug set is available from the NCI Developmental Therapeutics Program. […] The stock solutions were prepared in dimethyl sulfoxide (DMSO, Sigma-Aldrich, St. Louis, MO, cat. D2650) at 800-fold the tested concentration and stored at -70 degrees C prior to their use. All drugs and investigational agents were tested over a range starting from a high concentration at or near the clinical Cmax and decreasing in half-log increments. If the clinical Cmax for an agent had not been determined, the highest concentration tested was 10 microM.
NCI60 Cell Culture. NCI60 cell lines were obtained from the NCI Developmental Therapeutics Program Tumor Repository. For each lot of cells, the Repository performed Applied Biosystems AmpFLSTR Identifiler testing with PCR amplification to confirm consistency with the published Identifier STR profile for each cell line. Cells were kept in continuous culture for no more than 20 passages. The optimal seeding densities for each of the cell lines at each time point assessed were determined prior to performing the concentration response studies. Briefly, the NCI60 human tumor lines were grown as monolayers in RPMI 1640 medium supplemented with 10% FBS and 2 mmol/L L-glutamine.
An additional 9 lines were from the NCI60 cell line panel including MDA-MB-231 breast carcinoma, MDA-MB-468 breast carcinoma, MCF7 breast carcinoma, Hs578T breast carcinoma, MALME-3M melanoma, SK-MEL-2 melanoma, SK-OV-3 ovarian carcinoma, DU-145 prostate carcinoma, PC-3 prostate carcinoma, all cell lines along with major genetic alterations are listed on Table 2. Pooled donor human umbilical vein endothelial cells (HUVEC, Lonza, cat. CC-2519) and human mesenchymal stem cells (hMSC, Lonza, cat. PT-2501) were purchased from Lonza (Walkersville, MD).
PDMR cell lines were grown in complete medium (DC medium): Dulbecco's modified Eagle's medium (DMEM)/F12 supplemented with 5% fetal bovine serum (FBS), 2 mM L-glutamine, 100 U/mL penicillin and 100 µg/ml streptomycin, 0.4 µg/ml hydrocortisone, 10 ng/ml epidermal growth factor (EGF) recombinant human protein, 24 µg/mL adenine, and 0.1 mg/mL primocin. During culture from frozen stock vials, PDMR cells were cultured in the same medium containing 10 µM Y-27632 (see Table 3). The PDCs were cultured in complete DMEM/F12 media without 10 microM Y-27632 dihydrochloride for at least two passages prior to the screen. The pooled donor HUVEC and hMSC were cultured in endothelial cell growth medium 2 (PromoCell, Heidelberg, Germany, cat. C-22011) and mesenchymal stem cell growth medium 2 (PromoCell, cat. C-28009), respectively. For all experiments, HUVEC and hMSC were used at passages </=5.
[…]

[1] = second compound 0.1 µM, first compound 0.0316 µM
[2] = second compound 0.1 µM, first compound 0.1 µM
[3] = second compound 0.1 µM, first compound 0.316 µM
[4] = second compound 0.1 µM, first compound 1 µM
[5] = second compound 0.316 µM, first compound 0.0316 µM
[6] = second compound 0.316 µM, first compound 0.1 µM
[7] = second compound 0.316 µM, first compound 0.316 µM
[8] = second compound 0.316 µM, first compound 1 µM
[9] = second compound 1 µM, first compound 0.0316 µM
[10] = second compound 1 µM, first compound 0.1 µM
[11] = second compound 1 µM, first compound 0.316 µM
[12] = second compound 1 µM, first compound 1 µM
[13] = second compound 3.16 µM, first compound 0.0316 µM
[14] = second compound 3.16 µM, first compound 0.1 µM
[15] = second compound 3.16 µM, first compound 0.316 µM
[16] = second compound 3.16 µM, first compound 1 µM
[17] = second compound 10 µM, first compound 0.0316 µM
[18] = second compound 10 µM, first compound 0.1 µM
[19] = second compound 10 µM, first compound 0.316 µM
[20] = second compound 10 µM, first compound 1 µM

CC(=O)c1c(C)c2cnc(Nc3ccc(N4CCNCC4)cn3)nc2n(C2CCCC2)c1=O + CC(C)NCC(C(=O)N1CCN(c2ncnc3c2C(C)CC3O)CC1)c1ccc(Cl)cc1
< 0.949 nM: IC50 (second compound 10 µM)
7.21 nM: IC50 (second compound 1 µM)
inactive: viability, T/C (second compound 0.1 µM, first compound 0.000949 µM) 93.3% | viability, T/C (second compound 0.1 µM, first compound 0.003 µM) 89.6% | viability, T/C (second compound 0.1 µM, first compound 0.00949 µM) 67.7% | viability, T/C (second compound 0.1 µM, first compound 0.03 µM) 53% | viability, T/C (second compound 0.1 µM, first compound 0.0949 µM) 40.3% | viability, T/C (second compound 0.1 µM, first compound 0.3 µM) 35% | viability, T/C (second compound 0.316 µM, first compound 0.000949 µM) 82.4% | viability, T/C (second compound 0.316 µM, first compound 0.003 µM) 73.8% | viability, T/C (second compound 0.316 µM, first compound 0.00949 µM) 58.9% | viability, T/C (second compound 0.316 µM, first compound 0.03 µM) 42% | viability, T/C (second compound 0.316 µM, first compound 0.0949 µM) 34.4% | viability, T/C (second compound 0.316 µM, first compound 0.3 µM) 32% | viability, T/C (second compound 1 µM, first compound 0.000949 µM) 69% | viability, T/C (second compound 1 µM, first compound 0.003 µM) 60.9% | viability, T/C (second compound 1 µM, first compound 0.00949 µM) 45.9% | viability, T/C (second compound 1 µM, first compound 0.03 µM) 36% | viability, T/C (second compound 1 µM, first compound 0.0949 µM) 26.9% | viability, T/C (second compound 1 µM, first compound 0.3 µM) 26.3% | viability, T/C (second compound 3.16 µM, first compound 0.000949 µM) 50.4% | viability, T/C (second compound 3.16 µM, first compound 0.003 µM) 47.5% | viability, T/C (second compound 3.16 µM, first compound 0.00949 µM) 39.5% | viability, T/C (second compound 3.16 µM, first compound 0.03 µM) 29.1% | viability, T/C (second compound 3.16 µM, first compound 0.0949 µM) 25.5% | viability, T/C (second compound 3.16 µM, first compound 0.3 µM) 22.2% | viability, T/C (second compound 10 µM, first compound 0.000949 µM) 38.5% | viability, T/C (second compound 10 µM, first compound 0.003 µM) 33.9% | viability, T/C (second compound 10 µM, first compound 0.00949 µM) 27.2% | viability, T/C (second compound 10 µM, first compound 0.03 µM) 24.7% | viability, T/C (second compound 10 µM, first compound 0.0949 µM) 22.4% | viability, T/C (second compound 10 µM, first compound 0.3 µM) 20.3%
17.3 nM: IC50 (second compound 0.316 µM)
1.28 nM: IC50 (second compound 3.16 µM)
35.1 nM: IC50 (second compound 0.1 µM)

COc1c(OCCCN2CCOCC2)ccc2c3n(c(=NC(=O)c4cnc(N)nc4)nc12)CCN3 + CC(C)NCC(C(=O)N1CCN(c2ncnc3c2C(C)CC3O)CC1)c1ccc(Cl)cc1
50.9 nM: IC50 (second compound 0.1 µM)
27.7 nM: IC50 (second compound 0.316 µM)
< 3.16 nM: IC50 (second compound 10 µM)
16.1 nM: IC50 (second compound 1 µM)
4.7 nM: IC50 (second compound 3.16 µM)
inactive: viability, T/C (second compound 0.1 µM, first compound 0.00316 µM) 85.3% | viability, T/C (second compound 0.1 µM, first compound 0.01 µM) 70.1% | viability, T/C [1] 57.4% | viability, T/C [2] 42.3% | viability, T/C [3] 34.1% | viability, T/C [4] 40.3% | viability, T/C (second compound 0.316 µM, first compound 0.00316 µM) 71% | viability, T/C (second compound 0.316 µM, first compound 0.01 µM) 59.4% | viability, T/C [5] 51.7% | viability, T/C [6] 37.5% | viability, T/C [7] 31.7% | viability, T/C [8] 41% | viability, T/C (second compound 1 µM, first compound 0.00316 µM) 62.6% | viability, T/C (second compound 1 µM, first compound 0.01 µM) 54.4% | viability, T/C [9] 43.9% | viability, T/C [10] 36.3% | viability, T/C [11] 28.2% | viability, T/C [12] 41.9% | viability, T/C (second compound 3.16 µM, first compound 0.00316 µM) 52.1% | viability, T/C (second compound 3.16 µM, first compound 0.01 µM) 47% | viability, T/C [13] 37.1% | viability, T/C [14] 30.4% | viability, T/C [15] 25.2% | viability, T/C [16] 32.5% | viability, T/C (second compound 10 µM, first compound 0.00316 µM) 33.6% | viability, T/C (second compound 10 µM, first compound 0.01 µM) 31.9% | viability, T/C [17] 28.2% | viability, T/C [18] 22.6% | viability, T/C [19] 20% | viability, T/C [20] 31.1%

Cc1nc(NC(=O)N2CCCC2C(N)=O)sc1-c1ccnc(C(C)(C)C(F)(F)F)c1 (stereo not given) + CC(C)NCC(C(=O)N1CCN(c2ncnc3c2C(C)CC3O)CC1)c1ccc(Cl)cc1
> 10000 nM: IC50 (second compound 0.1 µM) | IC50 (second compound 0.316 µM) | IC50 (second compound 1 µM)
< 31.6 nM: IC50 (second compound 3.16 µM) | IC50 (second compound 10 µM)
inactive: viability, T/C [1] 84.1% | viability, T/C [2] 71.3% | viability, T/C [3] 64.7% | viability, T/C [4] 71.8% | viability, T/C (second compound 0.1 µM, first compound 3.16 µM) 71.4% | viability, T/C (second compound 0.1 µM, first compound 10 µM) 62.5% | viability, T/C [5] 74.8% | viability, T/C [6] 63.7% | viability, T/C [7] 58.3% | viability, T/C [8] 59.9% | viability, T/C (second compound 0.316 µM, first compound 3.16 µM) 64.8% | viability, T/C (second compound 0.316 µM, first compound 10 µM) 60.8% | viability, T/C [9] 63.1% | viability, T/C [10] 58.7% | viability, T/C [11] 55.3% | viability, T/C [12] 55.3% | viability, T/C (second compound 1 µM, first compound 3.16 µM) 58% | viability, T/C (second compound 1 µM, first compound 10 µM) 55.8% | viability, T/C [13] 50.7% | viability, T/C [14] 45.8% | viability, T/C [15] 41.4% | viability, T/C [16] 46% | viability, T/C (second compound 3.16 µM, first compound 3.16 µM) 46.1% | viability, T/C (second compound 3.16 µM, first compound 10 µM) 42.6% | viability, T/C [17] 35.2% | viability, T/C [18] 33.1% | viability, T/C [19] 31.6% | viability, T/C [20] 33.1% | viability, T/C (second compound 10 µM, first compound 3.16 µM) 37.8% | viability, T/C (second compound 10 µM, first compound 10 µM) 32.8%
